According to patent publication US20060025566A1, “Macrocyclic modulators of the ghrelin receptor” (Tranzyme Pharma Inc., priority 2003, published 2006):
Read-outs that look alike come from different tables or passages of the source.

Columns and labels:
[1] = biological target: human ghrelin receptor (hGHS-R1a) (Homo sapiens, UniProt Q92847); experiment: Aequorin functional assay (ghrelin receptor), CHO-K1 cells co-expressing Gα16 and aequorin; format: cell-based; conditions: functional (agonist) activity, standard method; TFA salts unless otherwise noted
Text: Coelenterazine (Molecular Probes, Leiden, The Netherlands). […] Compound Handling
(§1) • 1. […] Key Aspects of Method • 1. […] Results

[2] = biological target: T1, human growth hormone secretagogue receptor (hGHS-R1a) (Homo sapiens, UniProt Q92847); experiment: Competitive radioligand binding assay (ghrelin receptor), [125I]-ghrelin displacement on GHS-R/HEK 293 membranes
T1 construct: purchased PerkinElmer BioSignal #RBHGHSM, lot#1887; host or cells: HEK-293, stably transfected (membranes)
Procedure: The competitive binding assay at the human growth hormone secretagogue receptor (hGHS-R1a) was carried out analogously to assays described in the literature.
Multiscreen Harvest plates-GF/C (Millipore, #MAHFC 1H60) • 4. […] Bottom seal (Millipore, #MATAH0P00) • 7. […] Binding Buffer: 25 mM Hepes (pH 7.4), 1 mM CaCl2, 5 mM MgCl2, 2.5 mM EDTA, 0.4% BSA Assay Volumes
Competition experiments were performed in a 300 μl filtration assay format. • 1. 220 μL of membranes diluted in binding buffer • 2. 40 μL of compound diluted in binding buffer • 3. […] Compound Handling
Compounds were provided frozen on dry ice at a stock concentration of 10 mM diluted in 100% DMSO and stored at −80° C. until the day of testing. On the test day, compounds were allowed to thaw at rt O/N and then diluted in assay buffer according to the desired test concentrations.
Plates were sealed with TopSeal-A, vortexed gently and incubated at rt for 30 min. The reaction was arrested by filtering samples through Multiscreen Harvest plates (pre-soaked in 0.5% polyethyleneimine) using a Tomtec Harvester, washed 9 times with 500 μL of cold 50 mM Tris-HCl (pH 7.4, 4° C.), and then plates were air-dried in a fumehood for 30 min. A bottom seal was applied to the plates prior to the addition of 25 μL of MicroScint-0 to each well. […] Results were expressed as counts per minute (cpm).
Data were analyzed by GraphPad Prism (GraphPad Software, San Diego, Calif.) using a variable slope non-linear regression analysis.
as §1

[3] = [125I]-ghrelin competition, GHS-R/HEK 293 membranes, Table 3A, read-out: Binding Activity at the Human Ghrelin Receptor
[4] = binding activity, standard method, TFA salts unless otherwise noted, read-out: Ki
[5] = binding activity at the human ghrelin receptor, [125I]-ghrelin competition, GHS-R/HEK 293 membranes, read-out: Ki
[6] = binding activity at the human ghrelin receptor, [125I]-ghrelin displacement, read-out: Ki
[7] = second table titled 3C (compounds 435-449), human ghrelin receptor, read-out: Ki

T1 sequence (Q92847 whole entry): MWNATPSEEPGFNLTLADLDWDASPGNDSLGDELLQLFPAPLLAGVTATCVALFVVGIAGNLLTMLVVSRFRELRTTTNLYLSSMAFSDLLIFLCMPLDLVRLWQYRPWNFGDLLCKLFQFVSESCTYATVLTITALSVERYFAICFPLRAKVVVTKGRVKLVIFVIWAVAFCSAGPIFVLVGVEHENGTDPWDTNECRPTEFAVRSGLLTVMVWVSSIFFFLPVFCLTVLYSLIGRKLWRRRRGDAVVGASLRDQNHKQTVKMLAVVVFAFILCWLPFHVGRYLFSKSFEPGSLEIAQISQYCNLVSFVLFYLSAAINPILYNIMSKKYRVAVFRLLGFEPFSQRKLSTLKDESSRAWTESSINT
Chain of human ghrelin receptor (hGHS-R1a) (Q92847 whole entry): as above

Compound	EC50 [1]	Ki [2, 4]	Ki [2, 6]	other results
CCC(C)C1NCc2ccccc2CCCCNC(=O)C(Cc2ccccc2)NC(=O)C(C)N(C)C1=O (single isomer, unassigned) [194a]	100 to 1000 nM	100 to 1000 nM		Ki [2, 3]: 100 to 1000 nM
CC(C)C[C@@H]1NCCOc2ccccc2C=CCNC(=O)[C@H](Cc2ccccc2)NC(=O)C2(CCCC2)NC1=O (stereo in doubt) [Compound 8]	1 to 100 nM	10 to 100 nM		Ki [2, 5]: 10 to 100 nM
CC(C)C[C@@H]1NCCOc2ccccc2C=CCNC(=O)[C@H](Cc2ccc(Cl)cc2)NC(=O)C2(CCCC2)NC1=O (stereo in doubt) [compound 153]	1 to 100 nM	10 to 100 nM		Ki [2, 5]: 10 to 100 nM
CC(C)C[C@@H]1NCCOc2ccccc2C=CCNC(=O)[C@H](Cc2ccc(F)cc2)NC(=O)C2(CCCC2)NC1=O (stereo in doubt) [compound 154]	1 to 100 nM	10 to 100 nM		Ki [2, 5]: 10 to 100 nM
CC1(C)NC(=O)C2(CCCC2)NCCOc2ccccc2C=CCNC(=O)[C@H](Cc2cccc(Cl)c2)NC1=O (stereo in doubt) [compound 334]	1 to 100 nM	10 to 100 nM		Ki ([2]; Table 3C (compounds 18, 334-397), human ghrelin receptor, read-out: Ki): 10 to 100 nM
CC(C)[C@@H]1NCCOc2ccccc2CCCNC(=O)[C@@H](Cc2ccccc2)NC(=O)CN(C)C1=O [Compound 3]	100 to 1000 nM	100 to 1000 nM		Ki [2, 5]: 100 to 1000 nM
CCC[C@@H]1NCCOc2ccccc2CCCNC(=O)[C@@H](Cc2c[nH]c3ccccc23)NC(=O)CN(C)C1=O [Compound 6]	1 to 100 nM	100 to 1000 nM		Ki [2, 5]: 100 to 1000 nM
CC(C)[C@@H]1NCCOc2ccccc2CCCNC(=O)[C@H](Cc2ccccc2)NC(=O)C2(CCCC2)NC1=O [Compound 9]	100 to 1000 nM	100 to 1000 nM		Ki [2, 5]: 100 to 1000 nM
CC[C@H](C)[C@@H]1NCCOc2ccccc2CCCNC(=O)[C@@H](Cc2ccccc2)NC(=O)[C@@H](C)NC1=O [compound 2]	100 to 1000 nM	100 to 1000 nM		Ki [2, 5]: 100 to 1000 nM
CCC[C@@H]1NCCOc2ccccc2CCCNC(=O)[C@@H](Cc2ccccc2)NC(=O)CN(CC)C1=O [compound 5]	100 to 1000 nM			Ki [2, 5]: 100 to 1000 nM
CC[C@H](C)[C@@H]1NCCOc2ccccc2CCCNC(=O)[C@@H](Cc2ccccc2Cl)NC(=O)[C@@H](C)N(C)C1=O [compound 23]	1 to 100 nM	0.1 to 10 nM		Ki [2, 5]: 0.1 to 10 nM
CC[C@H](C)[C@@H]1NCCOc2ccccc2CCCNC(=O)[C@@H](Cc2cccc3ccccc23)NC(=O)[C@@H](C)N(C)C1=O [compound 30]	1 to 100 nM	0.1 to 10 nM		Ki [2, 5]: 0.1 to 10 nM
CC(C)C[C@@H]1NCCOc2ccccc2CCCNC(=O)[C@@H](Cc2ccccc2)NC(=O)C2(CCCC2)NC1=O [compound 97]	100 to 1000 nM	10 to 100 nM		Ki [2, 5]: 100 to 1000 nM
CC(C)C[C@@H]1NCCOc2ccccc2CCCNC(=O)[C@H](Cc2ccccc2)NC(=O)C2(CC2)NC1=O [compound 111]	100 to 1000 nM	10 to 100 nM		Ki [2, 5]: 100 to 1000 nM
CC(C)CC1NCCOc2ccccc2CCCNC(=O)C(Cc2ccccc2)NC(=O)C2(CCCC2)NC1=O (stereo not shown) [compound 113]	100 to 1000 nM	10 to 100 nM		Ki [2, 5]: 100 to 1000 nM
CC(C)C[C@@H]1NCCOc2ccccc2/C=C/CNC(=O)C2(CCCC2)NC(=O)C2(CCCC2)NC1=O [compound 168]	> 1000 nM	100 to 1000 nM		Ki [2, 3]: 100 to 1000 nM
CC(C)C1NCCOc2ccccc2CCCNC(=O)C(Cc2ccccc2)NC(=O)C2(CCNCC2)NC1=O (stereo not shown) [compound 207]				Ki [2, 3]: > 10000 nM
CC[C@H](C)[C@@H]1NCCOc2ccccc2CCCNC(=O)[C@@H]([C@@H](C)CC)NC(=O)[C@@H](C)N(C)C1=O [compound 209]				Ki [2, 3]: 100 to 1000 nM
CCC(C)C1NCCOc2ccccc2CCCNC(=O)C(Cc2ccccc2)NC(=O)C(CC)N(C)C1=O (stereo not shown) [compound 212]				Ki [2, 3]: 100 to 1000 nM
CCC(C)C1NCCOc2ccccc2CCCNC(=O)C(Cc2ccccc2)NC(=O)C2CSCN2C1=O (stereo not shown) [compound 213]				Ki [2, 3]: > 1000 nM
CCC(C)C1NCCOc2ccccc2CCCNC(=O)C(Cc2ccccc2)NC(=O)C(COC(C)(C)C)NC1=O (stereo not shown) [compound 215]				Ki [2, 3]: 1000 to 10000 nM
CC(C)[C@@H]1NCCOc2ccccc2CCCNC(=O)[C@H](Cc2ccccc2)NC(=O)C2(CC2)NC1=O [compound 216]				Ki [2, 3]: 1000 to 10000 nM
C[C@@H]1C(=O)N[C@H](Cc2ccccc2)C(=O)NCCCc2ccccc2OCCN2CCCC[C@H]2C(=O)N1C [compound 226]	> 1000 nM	10 to 100 nM		
CC1C(=O)NC(Cc2ccc(Cl)cc2)C(=O)NCCCc2ccccc2OCCNC(C2CC2)C(=O)N1C (stereo not shown) [compound 299]	1 to 100 nM	0.1 to 10 nM	0.1 to 10 nM	
CC[C@H](C)[C@@H]1NCCOc2ccccc2CCCNC(=O)[C@@H](Cc2c[nH]cn2)NC(=O)[C@@H](C)N(C)C1=O [compound 305]			100 to 1000 nM	

Compound	EC50 [1]	Ki [2, 4]	Ki [2, 6]	other results
C[C@@H]1C(=O)N[C@H](Cc2ccc(F)cc2)C(=O)NCCCc2ccccc2OCCN[C@@H](C2CC2)C(=O)N1C [compound 309]			0.1 to 10 nM	
C[C@@H]1C(=O)N[C@H](Cc2ccccc2F)C(=O)NCCCc2ccccc2OCCN[C@@H](C2CC2)C(=O)N1C [compound 312]			0.1 to 10 nM	
CC1C(=O)NC(Cc2ccc(Cl)c(Cl)c2)C(=O)NCCCc2ccccc2OCCNC(C2CC2)C(=O)N1C (stereo not shown) [compound 315]			0.1 to 10 nM	
C[C@@H]1C(=O)N[C@H](Cc2ccc(F)c(F)c2)C(=O)NCCCc2ccccc2OCCN[C@@H](C2CC2)C(=O)N1C [compound 316]			10 to 100 nM	
C[C@@H]1C(=O)N[C@H](Cc2cc(F)cc(F)c2)C(=O)NCCCc2ccccc2OCCN[C@@H](C2CC2)C(=O)N1C [compound 317]			10 to 100 nM	
C[C@@H]1C(=O)N[C@H](Cc2ccc(Br)cc2)C(=O)NCCCc2ccccc2OCCN[C@@H](C2CC2)C(=O)N1C [compound 319]			0.1 to 10 nM	
C[C@@H]1C(=O)N[C@H](Cc2ccc(I)cc2)C(=O)NCCCc2ccccc2OCCN[C@@H](C2CC2)C(=O)N1C [compound 320]			0.1 to 10 nM	
C[C@@H]1C(=O)N[C@H](Cc2ccc(C#N)cc2)C(=O)NCCCc2ccccc2OCCN[C@@H](C2CC2)C(=O)N1C [compound 321]			10 to 100 nM	
CC1C(=O)NC(Cc2ccc(C(F)(F)F)cc2)C(=O)NCCCc2ccccc2OCCNC(C2CC2)C(=O)N1C (stereo not shown) [compound 322]	1 to 100 nM	0.1 to 10 nM	0.1 to 10 nM	
CCC(C)C1NCCOc2ccccc2C=CCNC(=O)C(Cc2cccc(F)c2)NC(=O)C2(CCCC2)NC1=O (stereo not shown) [compound 325]			10 to 100 nM	
CCC(C)C1NCCOc2ccccc2C=CCNC(=O)C(Cc2cccc(OC)c2)NC(=O)C2(CCCC2)NC1=O (stereo not shown) [compound 328]			10 to 100 nM	
COC[C@@H]1NCCOc2ccccc2CCCNC(=O)[C@@H](Cc2ccc(F)cc2)NC(=O)[C@@H](C)N(C)C1=O [compound 336]			100 to 1000 nM	
C[C@@H]1C(=O)N[C@H](Cc2ccc(F)cc2)C(=O)NCCCc2ccccc2OCCN[C@@H](CN)C(=O)N1C [compound 337]			100 to 1000 nM	
C[C@@H]1C(=O)N[C@H](Cc2ccc(F)cc2)C(=O)NCCCc2ccccc2OCCN[C@@H](CCN)C(=O)N1C [compound 338]			100 to 1000 nM	
C[C@@H]1C(=O)N[C@H](Cc2ccc(F)cc2)C(=O)NCCCc2ccccc2OCCN[C@@H](CCCN)C(=O)N1C [compound 339]			100 to 1000 nM	
CSCC[C@@H]1NCCOc2ccccc2CCCNC(=O)[C@@H](Cc2ccc(F)cc2)NC(=O)[C@@H](C)N(C)C1=O [compound 340]			10 to 100 nM	
COc1ccccc1C[C@@H]1NCCOc2ccccc2/C=C/CNC(=O)[C@H](Cc2cccc(Cl)c2)NC(=O)C2(CCCC2)NC1=O [compound 343]			100 to 1000 nM	
CCC(C)C1NCCOc2ccccc2C=CCNC(=O)C(COCc2ccccc2)NC(=O)C2(CCCC2)NC1=O (stereo not shown) [compound 347]			100 to 1000 nM	
C[C@@H]1C(=O)N[C@H](Cc2cc(F)c(F)c(F)c2)C(=O)NCCCc2ccccc2OCCN[C@@H](C2CC2)C(=O)N1C [compound 391]			0.1 to 10 nM	
CC1C(=O)NC(Cc2ccc(F)cc2)C(=O)NCC=Cc2ccccc2OCCNC(C2CC2)C(=O)N1C (stereo not shown) [compound 401]			0.1 to 10 nM	
O=C1NC/C=C/c2ccccc2OCCNC2(CCCC2)C(=O)NC2(CCCC2)C(=O)N[C@H]1Cc1cccc(Cl)c1 [compound 437]				Ki [2, 7]: 0.1 to 10 nM
CCC(C)C1NCCOc2ccccc2C=CCNC(=O)C(Cc2ccc(C(=O)O)cc2)NC(=O)C2(CCCC2)NC1=O (stereo not shown) [compound 441]				Ki [2, 7]: 1000 to 10000 nM
CCC(C)C1NCCOc2ncccc2CCCNC(=O)C(Cc2cccc(Cl)c2)NC(=O)C2(CCCC2)NC1=O (stereo not shown) [compound 449]				Ki [2, 7]: 1000 to 10000 nM
C[C@@H]1C(=O)N[C@H](Cc2ccccc2)C(=O)NCCCc2ccccc2OCCN2CCCC[C@H]2C(=O)N1C [drawing 1187]				Ki ([2]; Table 3E, human ghrelin receptor, read-out: Ki): 10 to 100 nM
